Results published in ChEMBL document CHEMBL5331123, “Potent Dual Inhibitors of Steroid Sulfatase and 17β-Hydroxysteroid Dehydrogenase Type 1 with a Suitable Pharmacokinetic Profile for In Vivo Proof-of-Principle Studies in an Endometriosis Mouse Model” (J Med Chem, 2023).
In brackets after ≈: the same amount, converted by molar mass.

Key:
[1] = Metabolic stability in human liver S9 fraction assessed as intrinsic clearance measured upto 60 mins in presence of NADPH by LC-MS/MS analysis; assay type: ADME, subcellular; conditions: read-out: CLH
Steryl-sulfatase [2] = biological target: T1, Steryl-sulfatase (Homo sapiens, UniProt P08842); assay: Inhibition of human STS expressed in human T47D cells using [3H]E1S as substrate incubated for 1 hr followed by substrate addition measured after 24 hrs in presence of E1S by HPLC analysis; assay type: cell-based
T1 sequence (P08842 whole entry): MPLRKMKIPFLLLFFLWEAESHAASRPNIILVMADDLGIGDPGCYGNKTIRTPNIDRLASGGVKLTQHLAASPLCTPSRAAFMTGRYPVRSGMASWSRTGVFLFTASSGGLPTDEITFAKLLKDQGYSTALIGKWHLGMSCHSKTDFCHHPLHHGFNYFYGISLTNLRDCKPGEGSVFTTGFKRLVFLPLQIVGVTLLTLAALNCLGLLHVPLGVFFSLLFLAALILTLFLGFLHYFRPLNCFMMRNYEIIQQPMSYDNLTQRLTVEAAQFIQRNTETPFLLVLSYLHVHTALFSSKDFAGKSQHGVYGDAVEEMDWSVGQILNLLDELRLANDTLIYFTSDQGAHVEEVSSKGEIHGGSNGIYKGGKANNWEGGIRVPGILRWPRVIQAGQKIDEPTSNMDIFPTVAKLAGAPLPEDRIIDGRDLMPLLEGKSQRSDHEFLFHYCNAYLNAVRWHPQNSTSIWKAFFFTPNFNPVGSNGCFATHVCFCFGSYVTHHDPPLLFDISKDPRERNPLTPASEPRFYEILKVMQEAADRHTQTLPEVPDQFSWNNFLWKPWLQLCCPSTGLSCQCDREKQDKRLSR

[3] = biological target: T2, 17-beta-hydroxysteroid dehydrogenase type 1 (Homo sapiens, UniProt P14061); assay: Inhibition of human 17beta-HSD1 expressed in human T47D cells using [3H]E1 as substrate incubated for 1 hr followed by substrate addition measured after 40 mins in presence of E1 by HPLC analysis; assay type: cell-based
T2 sequence (P14061 whole entry): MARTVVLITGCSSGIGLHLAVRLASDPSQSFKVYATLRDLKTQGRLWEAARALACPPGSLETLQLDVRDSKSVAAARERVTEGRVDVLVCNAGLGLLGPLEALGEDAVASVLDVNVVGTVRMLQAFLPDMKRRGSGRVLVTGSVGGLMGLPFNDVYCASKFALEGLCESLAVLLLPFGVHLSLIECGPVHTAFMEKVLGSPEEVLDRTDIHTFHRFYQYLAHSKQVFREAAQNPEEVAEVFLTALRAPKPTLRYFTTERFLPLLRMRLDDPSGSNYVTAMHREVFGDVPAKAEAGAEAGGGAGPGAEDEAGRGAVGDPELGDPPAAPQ

[4] = biological target: T2, 17-beta-hydroxysteroid dehydrogenase type 1; assay: Inhibition of human placental cytosolic fraction 17beta-HSD1 using [3H]E1 as substrate measured after 10 mins in presence of NADH by HPLC analysis; assay type: tissue-based, Placenta
[5] = biological target: T3, 17-beta-hydroxysteroid dehydrogenase type 2 (Homo sapiens, UniProt P37059); assay: Inhibition of human placental microsomal fraction 17beta-HSD2 using [3H]E2 as substrate measured after 20 mins in presence of NAD+ by HPLC analysis; assay type: microsomes, Placenta, Microsome
T3 sequence (P37059 whole entry): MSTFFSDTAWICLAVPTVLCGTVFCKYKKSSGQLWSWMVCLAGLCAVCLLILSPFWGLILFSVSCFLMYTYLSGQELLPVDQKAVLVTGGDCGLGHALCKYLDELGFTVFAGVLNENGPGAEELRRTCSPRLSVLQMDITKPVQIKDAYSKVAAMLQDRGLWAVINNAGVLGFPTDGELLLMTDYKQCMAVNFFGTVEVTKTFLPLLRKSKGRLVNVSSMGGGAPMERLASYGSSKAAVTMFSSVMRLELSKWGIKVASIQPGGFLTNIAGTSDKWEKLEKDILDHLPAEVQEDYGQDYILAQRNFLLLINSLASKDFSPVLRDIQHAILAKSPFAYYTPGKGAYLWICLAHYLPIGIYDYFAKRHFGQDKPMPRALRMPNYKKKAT

Homo sapiens [6] = species on record: Homo sapiens; assay: Selectivity ratio of IC50 for human placental microsomal fraction 17beta-HSD2 to IC50 for human placental microsomal fraction 17beta-HSD1
[7] = Metabolic stability in human liver S9 fraction assessed as half life measured upto 60 mins in presence of NADPH by LC-MS/MS analysis; assay type: ADME, subcellular; conditions: for half-life: liver S9 fraction
[8] = Metabolic stability in mouse liver S9 fraction assessed as half life measured upto 60 mins in presence of NADPH by LC-MS/MS analysis; assay type: ADME, subcellular; conditions: for half-life: liver S9 fraction
Steryl-sulfatase [9] = biological target: T1, Steryl-sulfatase; assay: Irreversible inhibition of human STS expressed in human T47D cells using [3H]E1S as substrate preincubated for 2 hr followed by substrate addition measured after 24 hrs in presence of E1S by HPLC analysis; assay type: cell-based
HEK293 = assay: Cytotoxicity against HEK293 cells assessed as cell growth inhibition by measuring lethal concentration measured after 72 hrs by MTT assay; assay type: functional, Homo sapiens
HepG2 = assay: Cytotoxicity against human HepG2 cells assessed as cell growth inhibition by measuring lethal concentration measured after 48 hrs by MTT assay; assay type: functional
[10] = biological target: T4, Aryl hydrocarbon receptor (Homo sapiens, UniProt P35869); assay: Activation of AhR in human HepG2 cells assessed as increase in CYP1A1 activity at 3.16 uM measured after 48 hrs by fluorescence based analysis; assay type: cell-based; conditions: hepg2, 48 h
T4 sequence (P35869 whole entry): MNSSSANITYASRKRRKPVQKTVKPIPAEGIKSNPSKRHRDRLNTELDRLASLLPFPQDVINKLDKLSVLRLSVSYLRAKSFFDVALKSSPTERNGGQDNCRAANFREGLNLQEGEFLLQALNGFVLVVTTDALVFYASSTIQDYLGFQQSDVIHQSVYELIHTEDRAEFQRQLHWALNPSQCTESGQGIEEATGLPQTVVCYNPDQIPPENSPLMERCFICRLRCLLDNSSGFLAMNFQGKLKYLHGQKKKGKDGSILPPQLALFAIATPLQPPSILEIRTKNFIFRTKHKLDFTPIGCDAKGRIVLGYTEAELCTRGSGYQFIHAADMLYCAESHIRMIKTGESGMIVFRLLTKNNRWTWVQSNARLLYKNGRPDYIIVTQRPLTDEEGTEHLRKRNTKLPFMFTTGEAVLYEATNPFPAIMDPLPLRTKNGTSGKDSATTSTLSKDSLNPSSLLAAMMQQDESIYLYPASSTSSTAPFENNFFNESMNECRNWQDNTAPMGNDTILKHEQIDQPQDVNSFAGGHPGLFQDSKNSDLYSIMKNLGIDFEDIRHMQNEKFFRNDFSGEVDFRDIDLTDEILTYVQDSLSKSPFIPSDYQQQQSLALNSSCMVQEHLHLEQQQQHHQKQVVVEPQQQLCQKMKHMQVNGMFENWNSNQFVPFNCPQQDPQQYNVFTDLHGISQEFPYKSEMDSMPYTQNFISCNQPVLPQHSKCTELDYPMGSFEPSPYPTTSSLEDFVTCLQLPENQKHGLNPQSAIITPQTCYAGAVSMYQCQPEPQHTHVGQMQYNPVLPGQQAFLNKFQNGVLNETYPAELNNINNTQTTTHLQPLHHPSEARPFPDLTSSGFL

[11] = Observed Cmax in C57BL/6 mouse at 50 mg/kg, sc administered as single dose measured upto 24 hrs by HPLC-MS/MS analysis; assay type: ADME, organism-based; parameters: time < 24 hrs, dose 50 mg/kg, route sc; conditions: in vivo
[12] = Drug concentration in C57BL/6 mouse at 50 mg/kg, sc administered as single dose measured after 24 hrs by HPLC-MS/MS analysis; assay type: ADME, organism-based; conditions: in vivo, read-out: Drug uptake
[13] = Half life in C57BL/6 mouse at 50 mg/kg, sc administered as single dose measured after 24 hrs by HPLC-MS/MS analysis; assay type: ADME, organism-based; conditions: in vivo
[14] = AUC(0 to 24 hrs) in C57BL/6 mouse at 50 mg/kg, sc administered as single dose measured after 24 hrs by HPLC-MS/MS analysis; assay type: ADME, organism-based; parameters: time 24 hrs, dose 50 mg/kg, route sc; conditions: in vivo
[15] = Lipophilicity, logD of compound at pH 7.4; assay type: physicochemical; conditions: buffer
[16] = Aqueous solubility of compound in PBS measured after 1 to 24 hrs; assay type: physicochemical; conditions: time 1-24 hrs
[17] = biological target: T5, Steryl-sulfatase (Homo sapiens) (UniProt P08842); assay: Inhibition of human STS expressed in human T47D cells at 1 uM using [3H]E1S as substrate incubated for 1 hr followed by substrate addition measured after 24 hrs in presence of E1S by HPLC analysis relative to control; assay type: cell-based; conditions: time 25.0 hrs
T5 sequence (whole entry): T1 sequence (P08842 whole entry)

Homo sapiens [18] = species on record: Homo sapiens; assay: Selectivity ratio of IC50 for human 17beta-HSD2 to IC50 for human 17beta-HSD1

SMILES | microsomal CLint [1] [µL/min/mg] | IC50 (Steryl-sulfatase [2]) [nM] | IC50 [3] [nM] | IC50 [4] [nM] | IC50 [5] [µM] | Ratio IC50 (Homo sapiens [6]) | half-life [7] [min] | half-life [8] [min] | other results
C[C@]12CC[C@H]3[C@@H](CCC4=CC(=O)CC[C@@]43C)[C@@H]1CC[C@@H]2O [TESTOSTERONE] | 74.5 | – | – | – | – | – | – | – | –
Cc1cc(-c2ccc(C(=O)N(C)c3ccc(OS(N)(=O)=O)cc3)o2)cc(C)c1O | – | 150 | 110 | 430 | 7.7 | 18 | – | – | –
Cc1ccc(OS(N)(=O)=O)cc1N(C)C(=O)c1ccc(-c2cc(C)c(O)c(C)c2)o1 | 35.9 | 450 | 3.2 | 16 | 4.4 | 275 | 19.3 | 28.5 | IC50 (Steryl-sulfatase [9]): 460 nM; LC20 (HEK293): <=38 uM; LC20 (HepG2): 28 µM; Activity [10]: Not Active; Cmax [11]: 517 nM; concentration at 24 h [12]: 49 nM; half-life [13]: 129 min; AUC(0-t) at 24 h [14]: 1900 ng·h/mL; logD [15]: 2.68; solubility [16]: 20 µM (≈ 8.61 µg/mL)
Cc1cc(-c2ccc(C(=O)N(C)c3ccc(OS(N)(=O)=O)c(Cl)c3)o2)cc(C)c1O | – | 38 | 88 | 400 | 2.4 | 6 | – | – | –
Cc1cc(OS(N)(=O)=O)c(Cl)cc1N(C)C(=O)c1ccc(-c2cc(C)c(O)c(C)c2)o1 | 19.4 | 76 | 53 | 68 | 7.5 | 110 | 35.6 | 22.5 | IC50 (Steryl-sulfatase [9]): 79 nM; LC20 (HEK293): <=27 uM; LC20 (HepG2): 31 µM; Cmax [11]: 400 nM; concentration at 24 h [12]: 62 nM; half-life [13]: 169 min; AUC(0-t) at 24 h [14]: 1900 ng·h/mL; logD [15]: 2.75; solubility [16]: 20 µM (≈ 9.3 µg/mL)
Cc1cc(-c2ccc(C(=O)N(C)c3cccc(OS(N)(=O)=O)c3C)o2)cc(C)c1O | – | – | 58 | – | – | – | – | – | inhibition [17]: < 10%
Cc1cc(-c2ccc(C(=O)N(C)c3ccc(OS(N)(=O)=O)c(F)c3)o2)cc(C)c1O | – | 83 | 140 | 500 | 3.2 | 6 | – | – | –
Cc1cc(-c2ccc(C(=O)N(C)c3cccc(OS(N)(=O)=O)c3)o2)cc(C)c1O | – | 92 | 80 | 180 | 6.4 | 36 | – | – | –
O=C(c1ccc(-c2ccc(O)cc2)s1)c1c(F)ccc(O)c1F | – | – | – | – | – | – | < 5 | – | Ratio IC50 (Homo sapiens [18]): 24
Cc1cc(-c2ccc(C(=O)N(C)c3c(C)cccc3OS(N)(=O)=O)o2)cc(C)c1O | – | – | 140 | – | – | – | – | – | inhibition [17]: < 10%; Activity [10]: Not Active
O=c1ccc2ccc(O)cc2o1 [UMBELLIFERONE] | 139 | – | – | – | – | – | – | – | –
Cc1ccccc1N(C)C(=O)c1ccc(-c2cc(C)c(O)c(C)c2)o1 | 18.2 | – | 2.9 | – | – | 570 | 38 | 19 | Ratio IC50 (Homo sapiens [18]): 563; t1/2 ([7]; s9, 1 h, 1 h): 38.1 min; t1/2 ([8]; s9, 1 h, 1 h): 19.1 min; inhibition [17]: < 10%
NS(=O)(=O)Oc1ccc(-c2ccc(C(=O)c3c(F)ccc(O)c3F)s2)cc1Cl | – | 15 | – | – | – | 33 | < 5 | < 5 | Ratio IC50 (Homo sapiens [18]): 36
